From ChEMBL document CHEMBL1629464, “Aldehyde oxidase: an enzyme of emerging importance in drug discovery” (J Med Chem, 2010)

Tests used:
[1] = molecular target: T1, Aldehyde oxidase 1 (Rattus norvegicus, UniProt Q9Z0U5); experiment: Inhibition of rat aldehyde oxidase
T1 sequence (Q9Z0U5 whole entry): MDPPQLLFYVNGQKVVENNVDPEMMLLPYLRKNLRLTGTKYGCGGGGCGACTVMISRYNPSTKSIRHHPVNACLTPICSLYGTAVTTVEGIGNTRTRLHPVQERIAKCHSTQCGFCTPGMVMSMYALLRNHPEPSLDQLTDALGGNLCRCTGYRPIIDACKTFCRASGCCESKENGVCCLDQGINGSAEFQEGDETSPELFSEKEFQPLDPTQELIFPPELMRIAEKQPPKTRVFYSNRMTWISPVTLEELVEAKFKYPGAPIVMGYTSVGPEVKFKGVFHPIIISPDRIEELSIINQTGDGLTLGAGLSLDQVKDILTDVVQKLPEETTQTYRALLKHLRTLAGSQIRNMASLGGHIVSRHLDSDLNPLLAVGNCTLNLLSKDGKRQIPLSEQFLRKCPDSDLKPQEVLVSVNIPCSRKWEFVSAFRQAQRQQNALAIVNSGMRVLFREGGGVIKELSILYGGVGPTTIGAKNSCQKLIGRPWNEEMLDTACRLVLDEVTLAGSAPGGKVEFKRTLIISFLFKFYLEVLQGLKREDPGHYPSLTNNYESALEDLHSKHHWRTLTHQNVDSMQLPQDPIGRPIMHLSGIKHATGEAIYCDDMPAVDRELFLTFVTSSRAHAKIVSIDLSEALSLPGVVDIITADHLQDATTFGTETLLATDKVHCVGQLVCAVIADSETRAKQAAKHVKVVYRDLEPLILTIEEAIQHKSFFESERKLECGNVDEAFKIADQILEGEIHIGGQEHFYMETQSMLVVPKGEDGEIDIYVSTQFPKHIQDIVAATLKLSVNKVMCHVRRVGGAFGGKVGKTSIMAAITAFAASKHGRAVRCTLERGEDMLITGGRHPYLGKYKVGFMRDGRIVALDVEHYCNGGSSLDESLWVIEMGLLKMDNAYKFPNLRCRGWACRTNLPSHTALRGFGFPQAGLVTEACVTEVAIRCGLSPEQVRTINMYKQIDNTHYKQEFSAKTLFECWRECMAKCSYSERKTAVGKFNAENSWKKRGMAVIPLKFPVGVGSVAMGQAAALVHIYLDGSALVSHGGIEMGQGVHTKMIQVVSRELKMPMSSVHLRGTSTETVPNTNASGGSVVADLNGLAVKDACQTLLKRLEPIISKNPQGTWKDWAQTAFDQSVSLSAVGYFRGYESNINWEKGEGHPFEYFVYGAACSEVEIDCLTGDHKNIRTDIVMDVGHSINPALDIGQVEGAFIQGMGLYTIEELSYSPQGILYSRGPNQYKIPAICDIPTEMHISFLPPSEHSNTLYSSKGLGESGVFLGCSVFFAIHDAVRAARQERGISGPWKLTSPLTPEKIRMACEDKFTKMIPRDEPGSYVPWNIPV

[2] = molecular target: T2, Aldehyde oxidase 1 (Macaca fascicularis, UniProt Q5FB27); experiment: Inhibition of monkey aldehyde oxidase
T2 sequence (Q5FB27 whole entry): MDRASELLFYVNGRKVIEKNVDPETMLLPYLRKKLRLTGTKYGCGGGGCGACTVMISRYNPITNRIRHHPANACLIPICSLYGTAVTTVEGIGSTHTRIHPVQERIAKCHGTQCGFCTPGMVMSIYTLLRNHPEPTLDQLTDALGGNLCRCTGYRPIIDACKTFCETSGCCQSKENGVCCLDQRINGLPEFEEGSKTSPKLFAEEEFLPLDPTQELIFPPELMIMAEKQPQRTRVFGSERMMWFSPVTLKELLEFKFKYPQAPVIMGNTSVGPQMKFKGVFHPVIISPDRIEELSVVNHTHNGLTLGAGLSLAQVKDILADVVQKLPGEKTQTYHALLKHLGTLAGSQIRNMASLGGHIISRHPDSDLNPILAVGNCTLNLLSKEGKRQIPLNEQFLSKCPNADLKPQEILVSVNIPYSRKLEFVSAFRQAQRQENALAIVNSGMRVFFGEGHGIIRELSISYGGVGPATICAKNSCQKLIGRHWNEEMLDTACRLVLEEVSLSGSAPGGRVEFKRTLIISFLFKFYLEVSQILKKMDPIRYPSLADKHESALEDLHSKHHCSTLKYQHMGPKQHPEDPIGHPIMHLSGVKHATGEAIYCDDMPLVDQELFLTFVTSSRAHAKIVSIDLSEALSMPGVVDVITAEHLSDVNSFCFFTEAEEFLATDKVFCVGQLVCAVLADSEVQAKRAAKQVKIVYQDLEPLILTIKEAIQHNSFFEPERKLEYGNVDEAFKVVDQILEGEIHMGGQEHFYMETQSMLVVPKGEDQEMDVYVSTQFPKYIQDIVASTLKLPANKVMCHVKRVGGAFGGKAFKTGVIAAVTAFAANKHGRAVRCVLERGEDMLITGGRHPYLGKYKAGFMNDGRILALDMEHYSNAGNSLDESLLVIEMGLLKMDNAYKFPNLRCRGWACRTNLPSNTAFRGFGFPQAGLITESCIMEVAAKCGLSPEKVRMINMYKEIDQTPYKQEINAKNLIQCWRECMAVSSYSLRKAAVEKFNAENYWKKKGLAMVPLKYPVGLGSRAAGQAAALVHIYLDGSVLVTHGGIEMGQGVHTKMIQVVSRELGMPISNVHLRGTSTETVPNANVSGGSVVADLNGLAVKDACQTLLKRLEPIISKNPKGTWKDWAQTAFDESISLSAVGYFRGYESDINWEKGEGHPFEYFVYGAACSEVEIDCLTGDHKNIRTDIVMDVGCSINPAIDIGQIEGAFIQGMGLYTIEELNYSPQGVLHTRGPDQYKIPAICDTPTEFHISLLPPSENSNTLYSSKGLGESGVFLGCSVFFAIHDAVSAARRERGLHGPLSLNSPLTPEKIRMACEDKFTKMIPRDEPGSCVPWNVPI

SMILES | Ki [1] [µM] | IC50 [2] [µM] | IC50 [1] [µM]
C[C@]12CC[C@@H]3c4ccc(O)cc4CC[C@H]3[C@@H]1CC[C@@H]2O [ESTRADIOL] | 3 | 12 | –
OCCN1CCN(CCCN2c3ccccc3Sc3ccc(Cl)cc32)CC1 [PERPHENAZINE] | – | 3.6 | 0.74
